The record followed here is PubChem BioAssay AID1259408 (Genetic Toxicology Data Bank (GENE-TOX), 2018).

Molecules are shown by their SMILES. Activity calls are given as the source filed them. No rule for the calls is given here.

For the data set, the system named is GENE-TOX genotoxicity assays, various organisms and cells. As to the kind of experiment: GENE-TOX mutagenicity studies. Conditions: for call: Assay Type: In vivo carcinogenicity studies.
[1] abbreviates: Species/Cell Type: Drosophila melanogaster, Assay Type: Sex-linked recessive lethal gene mutation, Assay Code: SRL+, Evaluation Type: Evaluation A (Pre-1980).
The mark [2] stands for this setting: Species/Cell Type: Nonhuman, Assay Code: CCG+L, Evaluation Type: Evaluation A (Pre-1980).
Where [3] appears, read: Species/Cell Type: Nonhuman, Assay Type: Sister-chromatid exchange (SCE) in vitro, Assay Code: SC2+D, Dose Response: With dose response, Evaluation Type: Evaluation B (Post-1980).
Where [4] appears, read: Species/Cell Type: Saccharomyces cerevisiae, Assay Type: Mitotic recombination or gene conversion, Assay Code: YEC+, Evaluation Type: Evaluation A (Pre-1980).
Where [5] appears, read: Species/Cell Type: Salmonella typhimurium (one or more of the five standard strains: TA98, TA100, TA1535, TA1537, and TA1538), Assay Type: Histidine reverse gene mutation, Ames assay, Assay Code: SALT, Evaluation Type: Evaluation A (Pre-1980).
The mark [6] stands for this setting: Species/Cell Type: Escherichia coli polA (W3119 vs P3478), Assay Type: Rec-assay, DNA effects (bacterial DNA repair), Assay Code: RE1T, Evaluation Type: Evaluation A (Pre-1980).
[7] abbreviates: Species/Cell Type: Allium cepa, Assay Type: Chromosome aberrations, Assay Code: ALC+D, Dose Response: With dose response, Evaluation Type: Evaluation A (Pre-1980).
[8] abbreviates: Species/Cell Type: Escherichia coli polA (W3119 vs P3478), Assay Type: Rec-assay, DNA effects (bacterial DNA repair), Assay Code: RE1+, Evaluation Type: Evaluation A (Pre-1980).
The mark [9] stands for this setting: Species/Cell Type: Salmonella typhimurium (one or more of the five standard strains: TA98, TA100, TA1535, TA1537, and TA1538), Assay Type: Histidine reverse gene mutation, Ames assay, Assay Code: SAL+, Evaluation Type: Evaluation A (Pre-1980).
[10] abbreviates: Species/Cell Type: Bacillus subtilis (H17 vs M45), Assay Type: Rec-assay, spot test, DNA effects (bacterial DNA repair), Assay Code: REW+, Evaluation Type: Evaluation A (Pre-1980).
Setting [11] is: Species/Cell Type: Bacillus subtilis (H17 vs M45), Assay Type: Rec-assay, spot test, DNA effects (bacterial DNA repair), Assay Code: REW-, Evaluation Type: Evaluation A (Pre-1980).

On to `O=C[C@H](NC(=O)N(CCCl)N=O)[C@@H](O)[C@H](O)[C@H](O)CO`, for which the mutagenic call reads like this: (Species/Cell Type: Chinese hamster lung (V79) cells, Assay Type: Forward gene mutation at the HPRT or ouabain locus, Assay Code: V79+, Evaluation Type: Evaluation A (Pre-1980)) “active; positive”; under setting [1], “active; positive”; under setting [3], “active; positive”; under setting [4], “active; positive”. For the same compound, under setting [2], the call was “active; positive”.

As to `COc1ccc2c(c1)CC[C@@H]1[C@@H]2CC[C@]2(C)[C@@H](O)[C@H](O)C[C@@H]12`, the mutagenic call (Species/Cell Type: Rat, Sex: Male, Assay Type: Sperm morphology, Assay Code: SPA+, Evaluation Type: Evaluation A (Pre-1980)) is “active; positive”.

As to `Nc1c(O)cc(S(=O)(=O)O)c2ccccc12`, the mutagenic call under setting [5] is “no conclusion”.

Turning to `Nc1nc2nc[nH]c2c(=O)[nH]1`, the mutagenic call (Species/Cell Type: Drosophila melanogaster, Assay Type: Sex-linked recessive lethal gene mutation, Assay Code: SRLT, Evaluation Type: Evaluation A (Pre-1980)) is “no conclusion” and the mutagenic call under setting [6] is listed as “no conclusion”.

For the compound `C[n+]1ccc(-c2cc[n+](C)cc2)cc1`, the mutagenic call (Species/Cell Type: Allium cepa, Assay Type: Chromosome aberrations, Assay Code: ALC+, Evaluation Type: Evaluation A (Pre-1980)) was “active; positive”; the mutagenic call (Species/Cell Type: Hordeum vulgare (barley), Assay Type: Chromosome aberrations, Assay Code: HOC+, Evaluation Type: Evaluation A (Pre-1980)) was “active; positive”; the mutagenic call under setting [3] was “active; positive”; the mutagenic call (Species/Cell Type: Rodents, Sex: Male, Assay Type: Dominant lethal test, Assay Code: DLT-, Evaluation Type: Evaluation A (Pre-1980)) is “inactive; negative”; the mutagenic call under setting [4] was “active; positive”; the mutagenic call (Species/Cell Type: Vicia faba, Assay Type: Chromosome aberrations, Assay Code: VIC-, Evaluation Type: Evaluation A (Pre-1980)) is “inactive; negative”.

With `Cc1c(N)c(=O)n(-c2ccccc2)n1C`, under “Species/Cell Type: Salmonella typhimurium (one or more of the five standard strains: TA98, TA100, TA1535, TA1537, and TA1538), Assay Type: Histidine reverse gene mutation, Ames assay, Assay Code: SAL-, Evaluation Type: Evaluation A (Pre-1980)”, the mutagenic call is “inactive; negative”.

For the compound `CC1CCN(N=O)CC1`, the mutagenic call (Species/Cell Type: Drosophila melanogaster, Assay Type: Aneuploidy, partial sex chromosome loss, chromosome aberrations, Assay Code: DAPT, Evaluation Type: Evaluation A (Pre-1980)) is given as “no conclusion”; the mutagenic call (Species/Cell Type: Drosophila melanogaster, Assay Type: Aneuploidy, whole sex chromosome loss, chromosome aberrations, Assay Code: DACT, Evaluation Type: Evaluation A (Pre-1980)) is on record as “no conclusion”; the mutagenic call under setting [1] was “active; positive”; the mutagenic call (Species/Cell Type: Saccharomyces cerevisiae, Assay Type: Forward gene mutation, Assay Code: YEF+*, Activation: With metabolic activation, Evaluation Type: Evaluation A (Pre-1980)) is “active; positive”; the mutagenic call (Species/Cell Type: Salmonella typhimurium (one or more of the five standard strains: TA98, TA100, TA1535, TA1537, and TA1538), Assay Type: Histidine reverse gene mutation, Ames assay, Assay Code: SAL+*, Activation: With metabolic activation, Evaluation Type: Evaluation A (Pre-1980)) was “active; positive”.

For the compound `C[N+](C)(C)CCCl`, the call (Species/Cell Type: Nonhuman, Assay Code: CCG-, Evaluation Type: Evaluation A (Pre-1980)) is “inactive; negative”. Further, the mutagenic call (Species/Cell Type: Vicia faba, Assay Type: Chromosome aberrations, Assay Code: VIC+D, Dose Response: With dose response, Evaluation Type: Evaluation A (Pre-1980)) is “active; positive”.

On to `CCCCC[CH2][Hg][Br]`, for which the mutagenic call under setting [7] is “active; positive”.

For the compound `C=CC(OC(C)=O)c1ccc2c(c1)OCO2` (stereo not drawn), the mutagenic call reads like this: under setting [8], “active; positive”; (Species/Cell Type: Saccharomyces cerevisiae, Assay Type: Mitotic recombination or gene conversion, Assay Code: YEH+, Evaluation Type: Evaluation A (Pre-1980)) “active; positive”; under setting [9], “active; positive”.

`CCCCCCCCCCCCCCCCCCN(CCO)CCCN(CCO)CCO`: the mutagenic call (Species/Cell Type: Mammalian polychromatic erythrocytes, Assay Type: Micronucleus test, chromosome aberrations, Assay Code: MNTT, Evaluation Type: Evaluation B (Post-1980)) was “no conclusion”.

With `CC(C)NCCCNc1c2ccccc2nc2cccc([N+](=O)[O-])c12`, the mutagenic call is, setting by setting: (Species/Cell Type: Human lymphocytes, Assay Type: Sister-chromatid exchange (SCE) in vitro, Assay Code: SCL+, Evaluation Type: Evaluation A (Pre-1980)) “active; positive”; (Species/Cell Type: Human, Assay Type: Sister-chromatid exchange (SCE) in vitro, Assay Code: SC1+, Evaluation Type: Evaluation A (Pre-1980)) “active; positive”.

Take `O.O.O.[Co]`: the mutagenic call under setting [10] is “active; positive”.

For `COc1ccc(-c2oc3c(OC)c(OC)c(OC)cc3c(=O)c2OC)cc1`, under setting [10], the mutagenic call is “active; positive”.

In the case of `CC(=O)OCCBr`, under setting [8], the mutagenic call was “active; positive”.

`O=c1c2ccccc2sc2c(CO)ccc(NCCN3CCCCC3)c12`: the mutagenic call (Species/Cell Type: Mouse lymphoma (L5178Y) cells, Assay Type: Forward gene mutation at the thymidine kinase (TK) locus, chromosome aberrations, Assay Code: L51+, Evaluation Type: Evaluation A (Pre-1980)) is “active; positive”.

As for `O.O.O.O.O.O.[Cl-].[Cl-].[Ni+2]`, where the note is “Species/Cell Type: Nonhuman, Assay Type: Sister-chromatid exchange (SCE) in vitro, Assay Code: SC2+, Evaluation Type: Evaluation B (Post-1980)”, the mutagenic call was “active; positive”.

Consider `CN(N=O)c1ccccc1`, for which the mutagenic call runs as follows: (Species/Cell Type: Chinese hamster lung (V79) cells, Assay Type: Forward gene mutation at the HPRT or ouabain locus, Assay Code: V79-*, Activation: With metabolic activation, Evaluation Type: Evaluation A (Pre-1980)) “inactive; negative”; (Species/Cell Type: Vicia faba, Assay Type: Chromosome aberrations, Assay Code: VIC+, Evaluation Type: Evaluation A (Pre-1980)) “active; positive”.

With `Cc1c(F)c2ccccc2c2ccc3ccccc3c12`, the mutagenic call under setting [5] is given as “no conclusion”.

Turning to `O=[N+]([O-])c1ccc(C=NCCO)o1`, the mutagenic call under setting [9] was “active; positive”.

For the compound `O[C@@H]1[C@@H]2O[C@@H]2c2ccccc2[C@H]1O`, the mutagenic call under setting [8] is “active; positive”.

Take `Cc1nc(NO)cc2[nH]c3ccccc3c12`: the mutagenic call (Species/Cell Type: Human lymphocytes, Assay Type: Sister-chromatid exchange (SCE) in vitro, Assay Code: SCL+D, Dose Response: With dose response, Evaluation Type: Evaluation B (Post-1980)) is “active; positive” and the mutagenic call (Species/Cell Type: Human, Assay Type: Sister-chromatid exchange (SCE) in vitro, Assay Code: SC1+D, Dose Response: With dose response, Evaluation Type: Evaluation B (Post-1980)) was “active; positive”.

As for `Cc1cc2nc3c(cc(N)c4ccccc43)oc-2cc1=[N+](C)C`, under setting [11], the mutagenic call was “inactive; negative”.

Turning to `CC(C)(C)Cl`, the mutagenic call under setting [6] is “no conclusion”.

`CCCCN(N=O)/C(N)=N/[N+](=O)[O-]`: the mutagenic call reads like this: (Species/Cell Type: Arabidopsis species, Assay Type: Gene mutation, Assay Code: ARM+, Evaluation Type: Evaluation A (Pre-1980)) “active; positive”; under setting [9], “active; positive”.

As for `O=c1ccc2ccccc2o1`, the mutagenic call under setting [7] was “active; positive”.

For `FC(F)C(F)(F)C(F)(F)OC(F)(F)F`, the mutagenic call under setting [5] is “no conclusion”.

With `COC(=O)Nc1nc2ccc(C(=O)c3ccccc3)cc2[nH]1`, the mutagenic call reads like this: (Species/Cell Type: Salmonella typhimurium, Assay Type: Forward and reverse gene mutation, body fluid assay, Assay Code: BFU+, Evaluation Type: Evaluation A (Pre-1980)) “active; positive”; (Species/Cell Type: Salmonella typhimurium, Assay Type: Forward and reverse gene mutation, host-mediated assay, Assay Code: HMA+, Evaluation Type: Evaluation A (Pre-1980)) “active; positive”.

With `COc1cccc(OC)c1C(=O)N[C@@H]1C(=O)N2[C@@H]1SC(C)(C)[C@@H]2C(=O)O`, for the setting “Species/Cell Type: Escherichia coli polA (W3119 vs P3478), Assay Type: Rec-assay, DNA effects (bacterial DNA repair), Assay Code: RE1-, Evaluation Type: Evaluation A (Pre-1980)”, the mutagenic call is “inactive; negative”.

As for `C1=CC2OC2c2cc3ccc4cccc5ccc(c21)c3c45` (stereo not drawn), the mutagenic call was “inactive; negative” (Species/Cell Type: Chinese hamster lung (V79) cells, Assay Type: Forward gene mutation at the HPRT or ouabain locus, Assay Code: V79-, Evaluation Type: Evaluation A (Pre-1980)); “active; positive” under setting [3]; “active; positive” under setting [9]. Also, the call under setting [2] was “active; positive”.

Take `O=C1OC2(c3cc(Br)c(O)c(Br)c3Oc3c2cc(Br)c(O)c3Br)c2c(Cl)ccc(Cl)c21`: the mutagenic call is “inactive; negative” under setting [11] and “active; positive” (Species/Cell Type: Bacillus subtilis (H17 vs M45T), Assay Type: Rec-assay, spot test, DNA effects (bacterial DNA repair), Assay Code: REX+, Evaluation Type: Evaluation A (Pre-1980)).

As for `c1ccc2c(c1)ccc1c3ccccc3c(C3CO3)cc21` (stereo not drawn), the mutagenic call under setting [9] is “active; positive”.
